Reference: ChEMBL document CHEMBL1152284, “The contribution of plukenetione A to the anti-tumoral activity of Cuban propolis” (Bioorg Med Chem, 2008)
pIC50: −log10 of the molar value. ≈ marks a conversion by molar mass, not a printed value. Calls of active or inactive are those of the source. The calls are words filed in the database; no cut-off is given here.

How the values were obtained:
LNCaP [1] = test: Cytotoxicity against human LNCAP cells after 24 hrs; format: functional, cell-based
HCT-8 [2] = test: Cytotoxicity against raltitrexed-resistant human HCT8 cells after 24 hrs; format: functional, cell-based; details: HCT-8, 24 h
MCF7 [3] = test: Cytotoxicity against 5-FU-resistant human MCF7 cells after 24 hrs; format: functional, cell-based; details: MCF7, 24 h
A2780 [4] = test: Cytotoxicity against doxorubicin-resistant human A2780 cells after 24 hrs; format: functional, cell-based; details: A2780, 24 h
[5] = Cytotoxicity against cisplatin-resistant human LAN1 cells after 24 hrs; format: functional, cell-based; details: LAN1, 24 h
[6] = Cytotoxicity against human […] cells after 24 hrs; format: cell-based
MCF7 [7] = test: Cytotoxicity against human MCF7 cells after 24 hrs; format: functional, cell-based; details: MCF7, 24 h
PC-3 = test: Cytotoxicity against human PC3 cells after 24 hrs; format: functional, cell-based; details: PC-3, 24 h
HT-29 [8] = test: Cytotoxicity against SN38-resistant human HT-29 cells after 24 hrs; format: functional, cell-based; details: HT-29, 24 h
[9] = Cytotoxicity against human M51 cells after 24 hrs; format: functional, cell-based; details: M51, 24 h
NCI-H460 = test: Cytotoxicity against human H460 cells after 24 hrs; format: functional, cell-based; details: NCI-H460, 24 h
[10] = Cytotoxicity against human LAN1 cells after 24 hrs; format: functional, cell-based; details: LAN1, 24 h
HT-29 [11] = test: Cytotoxicity against human HT-29 cells after 24 hrs; format: functional, cell-based; details: HT-29, 24 h
[12] = Cytotoxicity against etoposide-resistant human LAN1 cells after 24 hrs; format: functional, cell-based; details: LAN1, 24 h
A2780 [13] = test: Cytotoxicity against human A2780 cells after 24 hrs; format: functional, cell-based; details: A2780, 24 h
HCT-8 [14] = test: Cytotoxicity against SN38-resistant human HCT8 cells after 24 hrs; format: functional, cell-based; details: HCT-8, 24 h
LNCaP [15] = test: Cytotoxicity against etoposide-resistant human LNCAP cells after 24 hrs; format: functional, cell-based
HCT-8 [16] = test: Cytotoxicity against human HCT8 cells after 24 hrs; format: functional, cell-based; details: HCT-8, 24 h
Jurkat = test: Cytotoxicity against human Jurkat cells after 24 hrs; format: functional, cell-based
K562 = test: Cytotoxicity against human K562 cells after 24 hrs; format: functional, cell-based; details: K562, 24 h
A2780 [17] = test: Cytotoxicity against cisplatin-resistant human A2780 cells after 24 hrs; format: functional, cell-based; details: A2780, 24 h
HT-29 [18] = test: Cytotoxicity against 5-FU-resistant human HT-29 cells after 24 hrs; format: functional, cell-based; details: HT-29, 24 h
[19] = Cytotoxicity against cisplatin-resistant human M51 cells after 24 hrs; format: functional, cell-based; details: M51, 24 h
MCF7 [20] = test: Cytotoxicity against doxorubicin-resistant human MCF7 cells after 24 hrs; format: functional, cell-based; details: MCF7, 24 h
[21] = Cytotoxicity against 5-FU-resistant human LAN1 cells after 24 hrs; format: functional, cell-based; details: LAN1, 24 h
HEK293 = test: Cytotoxicity against HEK293 cells after 24 hrs; format: cell-based; details: Homo sapiens, HEK293, 24 h
[22] = Antimetastatic activity in mouse EAC cells xenografted in NMRI mouse assessed as metastatic colony formation in lungs at 20 mg/kg, ip daily for 9 days relative to control; format: functional, Ehrlich; details: route intraperitoneal
HCT-8 [23] = test: Decrease in EGF receptor gene expression in human HCT8 cells at 2.5 times IC50 after 24 hrs by RT-PCR; format: functional, cell-based
[24] = Inhibition of HIV reverse transcriptase; set-up: species or system Human immunodeficiency virus
HCT-8 [25] = test: Cell cycle arrest in human HCT8 cells assessed as accumulation at S phase at IC50 after 24 hrs by FACS analysis relative to control; format: functional
[26] = molecular target: T1, DNA topoisomerase 1 (Homo sapiens) (UniProt P11387); test: Inhibition of human topoisomerase 1-mediated relaxation of supercoiled pBR322 DNA up to 12.5 ug/mL after 30 mins by agarose gel electrophoresis
T1 sequence (whole entry): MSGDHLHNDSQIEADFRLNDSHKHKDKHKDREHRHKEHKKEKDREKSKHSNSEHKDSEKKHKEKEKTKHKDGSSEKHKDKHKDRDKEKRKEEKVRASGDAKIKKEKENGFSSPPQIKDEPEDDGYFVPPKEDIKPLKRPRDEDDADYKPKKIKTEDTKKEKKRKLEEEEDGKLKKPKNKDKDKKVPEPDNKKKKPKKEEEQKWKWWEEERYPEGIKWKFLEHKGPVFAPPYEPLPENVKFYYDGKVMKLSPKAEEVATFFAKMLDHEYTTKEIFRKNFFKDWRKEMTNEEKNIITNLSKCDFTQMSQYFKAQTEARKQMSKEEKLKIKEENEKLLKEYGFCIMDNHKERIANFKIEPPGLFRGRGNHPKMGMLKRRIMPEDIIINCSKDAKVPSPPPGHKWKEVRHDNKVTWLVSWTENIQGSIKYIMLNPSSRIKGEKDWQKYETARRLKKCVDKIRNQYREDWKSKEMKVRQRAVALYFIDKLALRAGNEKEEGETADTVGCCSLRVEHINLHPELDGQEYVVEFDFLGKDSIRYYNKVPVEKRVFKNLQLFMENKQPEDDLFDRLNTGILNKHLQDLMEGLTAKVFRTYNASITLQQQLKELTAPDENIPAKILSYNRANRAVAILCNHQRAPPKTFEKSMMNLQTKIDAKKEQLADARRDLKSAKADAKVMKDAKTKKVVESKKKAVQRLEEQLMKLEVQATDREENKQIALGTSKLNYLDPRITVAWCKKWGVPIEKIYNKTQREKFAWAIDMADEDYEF

HCT-8 [27] = test: Induction of late apoptosis in [14C]D-thymidine labeled human HCT8 cells assessed DNA fragmentation treated at 10 times IC50 for 8 hrs measured after 24 hrs by liquid scintillation counter; format: functional, cell-based
HCT-8 [28] = test: Decrease in multidrug-resistant related protein gene expression in human HCT8 cells at 2.5 times IC50 after 24 hrs by RT-PCR; format: functional, cell-based
HCT-8 [29] = test: Cell cycle arrest in human HCT8 cells assessed as accumulation at G0/G1 phase at IC50 after 24 hrs by FACS analysis relative to control; format: functional
[30] = molecular target: DNA polymerase I, thermostable (Thermus aquaticus, UniProt P19821); test: Inhibition of Taq DNA polymerase
HCT-8 [31] = test: Cell cycle arrest in human HCT8 cells assessed as accumulation at G2/M phase at IC50 after 24 hrs by FACS analysis relative to control; format: functional
[32] = molecular target: T1, DNA topoisomerase 1 (Homo sapiens); test: Inhibition of human topoisomerase 1-mediated relaxation of supercoiled pBR322 DNA up to 6.25 ug/mL after 30 mins by agarose gel electrophoresis
HCT-8 [33] = test: Decrease in topoisomerase 2 beta gene expression in human HCT8 cells at 2.5 times IC50 after 24 hrs by RT-PCR; format: functional, cell-based
[34] = Inhibition of Moloney murine leukemia virus reverse transcriptase
HCT-8 [35] = test: Induction of late apoptosis in [14C]D-thymidine labeled human HCT8 cells assessed DNA fragmentation treated at 2.5 times IC50 for 8 hrs measured after 24 hrs by liquid scintillation counter; format: functional, cell-based

Sequence of DNA polymerase I, thermostable (P19821 whole entry): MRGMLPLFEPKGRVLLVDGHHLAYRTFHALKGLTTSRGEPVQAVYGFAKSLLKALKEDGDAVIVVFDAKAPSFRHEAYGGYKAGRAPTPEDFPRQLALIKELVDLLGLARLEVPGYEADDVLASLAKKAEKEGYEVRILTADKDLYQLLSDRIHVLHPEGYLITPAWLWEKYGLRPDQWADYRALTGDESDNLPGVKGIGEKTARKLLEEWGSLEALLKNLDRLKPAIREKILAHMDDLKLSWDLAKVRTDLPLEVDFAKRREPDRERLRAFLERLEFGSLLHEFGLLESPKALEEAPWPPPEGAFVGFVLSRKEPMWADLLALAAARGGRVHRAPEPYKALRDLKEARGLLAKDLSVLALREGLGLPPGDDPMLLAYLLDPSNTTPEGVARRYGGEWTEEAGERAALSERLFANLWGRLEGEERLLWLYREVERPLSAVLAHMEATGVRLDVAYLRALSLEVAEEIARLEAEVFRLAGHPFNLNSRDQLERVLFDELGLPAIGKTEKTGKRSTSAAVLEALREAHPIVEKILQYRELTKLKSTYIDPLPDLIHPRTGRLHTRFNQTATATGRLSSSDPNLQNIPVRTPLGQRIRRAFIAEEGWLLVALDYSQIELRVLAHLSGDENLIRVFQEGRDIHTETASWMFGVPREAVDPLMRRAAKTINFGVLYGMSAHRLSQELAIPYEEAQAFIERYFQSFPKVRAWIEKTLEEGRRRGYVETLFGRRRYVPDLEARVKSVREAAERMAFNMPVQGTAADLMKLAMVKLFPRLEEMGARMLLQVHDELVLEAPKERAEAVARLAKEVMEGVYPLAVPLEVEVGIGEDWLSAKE

| Structure (SMILES) | IC50 (LNCaP [1]) [µg/mL] | IC50 (HCT-8 [2]) [µg/mL] | IC50 (MCF7 [3]) [µg/mL] | IC50 (A2780 [4]) [µg/mL] | IC50 [5] [µg/mL] | IC50 [6] [µg/mL] | IC50 (MCF7 [7]) [µg/mL] | IC50 (HT-29 [8]) [µg/mL] | IC50 [9] [µg/mL] | IC50 (NCI-H460) [µg/mL] | IC50 [10] [µg/mL] | IC50 (HT-29 [11]) [µg/mL] | IC50 [12] [µg/mL] | IC50 (A2780 [13]) [µg/mL] | IC50 (HCT-8 [14]) [µg/mL] | IC50 (LNCaP [15]) [µg/mL] | IC50 (HCT-8 [16]) [µg/mL] | IC50 (Jurkat) [µg/mL] | IC50 (MCF7 [20]) [µg/mL] | IC50 (HEK293) [µg/mL] | also measured |
| --- | --- | --- | --- | --- | --- | --- | --- | --- | --- | --- | --- | --- | --- | --- | --- | --- | --- | --- | --- | --- | --- |
| CC(C)=CCC1=C(O)[C@@]2(C(=O)c3ccccc3)C(=O)[C@](CC=C(C)C)(C[C@H](CC=C(C)C)C2(C)C)C1=O | 2.12 (≈ 4.22 µM) | 4.44 (≈ 8.83 µM) | 3.3 (≈ 6.56 µM) | 6.75 (≈ 13.4 µM) | 8.44 (≈ 16.8 µM) | 21.7 (≈ 43.2 µM) | 4.37 (≈ 8.69 µM) | 3.5 (≈ 6.96 µM) | 5.7 (≈ 11.3 µM) | 4.21 (≈ 8.37 µM) | 8.2 (≈ 16.3 µM) | 5.25 (≈ 10.4 µM) | 9.18 (≈ 18.3 µM) | 9.2 (≈ 18.3 µM) | 4.07 (≈ 8.1 µM) | 1.81 (≈ 3.6 µM) | 4.23 (≈ 8.41 µM) | 4.6 (≈ 9.15 µM) | 4.28 (≈ 8.51 µM) | 4.2 (≈ 8.35 µM) | IC50 (PC-3): 2.01 µg/mL (≈ 4 µM); IC50 (K562): 4.2 µg/mL (≈ 8.35 µM); IC50 (A2780 [17]): 6.23 µg/mL (≈ 12.4 µM); IC50 (HT-29 [18]): 5.18 µg/mL (≈ 10.3 µM); IC50 [19]: 4.77 µg/mL (≈ 9.49 µM); IC50 [21]: 8.24 µg/mL (≈ 16.4 µM) |
| O=c1[nH]cc(F)c(=O)[nH]1 [FLUOROURACIL] |  |  |  |  |  |  |  |  |  |  |  |  |  |  |  |  |  |  |  |  | Activity [22]: 23.8% |
| COc1ccc([C@H]2COc3cc(O)ccc3C2)c(OC)c1O [MUCRONULATOL] |  |  |  |  | 10.2 (≈ 33.8 µM) |  | 2.52 (≈ 8.34 µM) |  |  |  | 10.1 (≈ 33.4 µM) |  | > 50 |  |  |  | 2.6 (≈ 8.6 µM) |  | > 50 | 2.5 (≈ 8.27 µM) | IC50 [21]: 8.22 µg/mL (≈ 27.2 µM) |
| CC(C)=CC[C@]12C[C@@H]3[C@H](C=C(C)C)[C@](CC=C(C)C)(C1=O)C(=O)[C@](C(=O)c1ccccc1)(C2=O)C3(C)C [PLUKENETIONE A] | 1.98 (≈ 3.95 µM) | 12.1 (≈ 24.2 µM) | 10 (≈ 20 µM) | 14.5 (≈ 28.9 µM) |  | 15.7 (≈ 31.4 µM) | 16.3 (≈ 32.5 µM) | 13.3 (≈ 26.6 µM) | 6.53 (≈ 13 µM) | 13.4 (≈ 26.8 µM) |  | 12 (≈ 24 µM) |  | 13.3 (≈ 26.6 µM) | 11.7 (≈ 23.3 µM) | 1.72 (≈ 3.44 µM) | 12.9 (≈ 25.8 µM) | 5.28 (≈ 10.5 µM) | 15 (≈ 29.9 µM) | 32.1 (≈ 64.1 µM) | Activity (HCT-8 [23]): Active; IC50 [24]: 1.5 µg/mL (≈ 3 µM); Activity (HCT-8 [25]): 4.3%; Activity [26]: Active; Activity (HCT-8 [27]): Active; Activity (HCT-8 [28]): Active; Activity (HCT-8 [29]): 52.1%; pIC50 [30]: 4.90; IC50 (A2780 [17]): 15.9 µg/mL (≈ 31.8 µM); IC50 (HT-29 [18]): 14.2 µg/mL (≈ 28.4 µM); IC50 [19]: 7.6 µg/mL (≈ 15.2 µM); Activity (HCT-8 [31]): 20.6%; Activity [32]: Active; Activity (HCT-8 [33]): Active; IC50 [34]: 1.5 µg/mL (≈ 3 µM); Activity (HCT-8 [35]): Active |
